The NIST ThermoML archive (doi:10.1016/j.fluid.2006.08.007)

Assays:
[1] = Liquid, Closed cell (Static) method
[2] = excess molar enthalpy (molar enthalpy of mixing); xn = mol fraction of the nth substance listed; details: 298.15 K, 101 kPa, Liquid, Flow calorimetry

C#CCCCC [1-hexyne]
[1]
Details | vapor or sublimation pressure [kPa]
263.15 K | 2.721
273.15 K | 4.893
283.15 K | 8.363
293.15 K | 13.67
298.15 K | 17.22
303.15 K | 21.5
313.15 K | 32.65
323.15 K | 48.09
333.15 K | 68.9
343.15 K | 96.32

COC(C)(C)C [2-methoxy-2-methylpropane]
[1]
Details | vapor or sublimation pressure [kPa]
263.15 K | 6.252
273.15 K | 10.64
283.15 K | 17.31
293.15 K | 27.06
298.15 K | 33.39
303.15 K | 40.86
313.15 K | 59.81
323.15 K | 85.15
333.15 K | 118.27
343.15 K | 160.66

CC#CCCC [2-hexyne]
[1]
Details | vapor or sublimation pressure [kPa]
263.15 K | 1.393
273.15 K | 2.608
283.15 K | 4.631
293.15 K | 7.845
298.15 K | 10.05
303.15 K | 12.75
313.15 K | 19.99
323.15 K | 30.32
333.15 K | 44.66
343.15 K | 64.09

C#CCCCC [1-hexyne] + COC(C)(C)C
[2]
Details | excess molar enthalpy [kcal/mol]
x1 = 0.1111 | -0.0332
x1 = 0.2113 | -0.0641
x1 = 0.3134 | -0.0884
x1 = 0.389 | -0.1
x1 = 0.4482 | -0.104
x1 = 0.5204 | -0.102
x1 = 0.6206 | -0.0901
x1 = 0.7263 | -0.0712
x1 = 0.8179 | -0.0526
x1 = 0.9011 | -0.0339

CC#CCCC [2-hexyne] + COC(C)(C)C
[2]
Details | excess molar enthalpy [kcal/mol]
x1 = 0.1527 | -0.0143
x1 = 0.2965 | -0.0263
x1 = 0.4852 | -0.0359
x1 = 0.6624 | -0.0351
x1 = 0.7708 | -0.0287
x1 = 0.8513 | -0.0203
